Measurements as given in US20130310379A1, “MODULATORS OF METHYL MODIFYING ENZYMES, COMPOSITIONS AND USES THEREOF” (CONSTELLATION PHARMACEUTICALS, priority 2010, published 2013).

The molecules below were run against EZH2 (Homo sapiens, UniProt Q15910) (assay: EZH2 assay: rPRC2 with biotinylated oligonucleosome substrates and 3H SAM, FlashPlate scintillation counting, IC50). Conditions: rPRC2, biotinylated oligonucleosome substrates, 3H SAM; read-out: EZH2 IC50.
Type: biochemical
Description: Assays were carried out by mixing rPRC2 together with biotinylated oligonucleosome substrates in the presence of the radio-labeled enzyme co-factor, S-adenosyl-L-methionine (^3H SAM) (Perkin Elmer) and monitoring the enzymatically mediated transfer of tritiated methyl groups from ^3H SAM to histone lysine residues. The amount of resulting tritated methylhistone product was measured by first capturing the biotinylated oligonuclesomes in streptavidin (SAV) coated FlashPlates (Perkin Elmer), followed by a wash step to remove un-reacted ^3H SAM, and then counting on a TopCount NXT 384 well plate scintillation counter (Perkin Elmer). The final assay conditions for EZH2 were as follows: 50 mM Tris Buffer pH 8.5, 1 mM DTT, 69 uM Brij-35 detergent, 5.0 mM MgCl2, 0.1 mg/mL BSA, 0.2 uM ^3H SAM, 0.2 uM biotinylated oligonucleosomes, 3.6 uM H3K27me3 peptide and 2 nM EZH2.
Compound IC50 measurements were obtained as follows: Compounds were first dissolved in 100% DMSO as 10 mM stock solutions. […] A 12.5 uL volume of the HMT enzyme, H3K27me3 peptide and oligonucleosome substrate in assay buffer was added to each well of the assay plate using a Multidrop Combi (ThermoFisher). Compounds were pre-incubated with the enzyme for 20 min, followed by initiation of the methyltransferase reaction by addition of 12.5 uL of 3H SAM in assay buffer (final volume=25 uL). The final concentrations of compounds ranged from a top default concentration of 80 uM down to 0.16 uM in ten 2-fold dilution steps. Reactions were carried out for 60 minutes and quenched with 20 uL per well of 1.96 mM SAH, 50 mM Tris PH 8.5, 200 mM EDTA. Stopped reactions were transferred to SAV coated Flashplates (Perkin Elmer), incubated for 120 min, washed with a plate washer, and then read on the TopCount NXT (1.0 min/well) to measure the amount of methylhistone product formed during the reaction. The amount of methylhistone product was compared with the amount of product formed in the 0% and 100% inhibition control wells allowing the calculation of % Inhibition in the presence of the individual compounds at various concentrations. IC50's were computed using a 4 parameter fit non-linear curve fitting software package (XLFIT, part of the database package, ActivityBase (IDBS)) where the four parameters were IC50, Hill slope, pre-transitional baseline (0% INH), and post-transitional baseline (100% INH); with the latter two parameters being fixed to zero and 100%, respectively, by default.

EZH2, sequence (Q15910 whole entry): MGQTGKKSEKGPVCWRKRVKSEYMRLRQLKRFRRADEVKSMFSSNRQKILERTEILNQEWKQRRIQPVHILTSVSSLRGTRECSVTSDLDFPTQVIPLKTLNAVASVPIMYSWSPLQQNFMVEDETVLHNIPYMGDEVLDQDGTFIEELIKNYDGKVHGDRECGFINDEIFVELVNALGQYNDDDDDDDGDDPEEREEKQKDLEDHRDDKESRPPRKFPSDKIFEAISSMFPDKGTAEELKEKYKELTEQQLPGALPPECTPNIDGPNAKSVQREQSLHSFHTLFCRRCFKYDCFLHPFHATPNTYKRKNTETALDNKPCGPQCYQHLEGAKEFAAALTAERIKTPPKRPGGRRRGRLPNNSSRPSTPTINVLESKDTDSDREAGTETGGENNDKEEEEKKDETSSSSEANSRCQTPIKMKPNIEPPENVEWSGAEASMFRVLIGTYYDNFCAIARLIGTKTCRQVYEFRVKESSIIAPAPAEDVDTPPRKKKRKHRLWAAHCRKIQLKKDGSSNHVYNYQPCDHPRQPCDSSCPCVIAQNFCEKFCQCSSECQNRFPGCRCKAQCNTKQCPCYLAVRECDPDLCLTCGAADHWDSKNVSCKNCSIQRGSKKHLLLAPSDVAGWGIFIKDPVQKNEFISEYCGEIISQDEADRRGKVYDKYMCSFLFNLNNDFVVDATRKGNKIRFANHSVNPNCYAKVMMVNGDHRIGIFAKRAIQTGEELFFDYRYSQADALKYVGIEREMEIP
EZH2, sequence (O75530 whole entry partner): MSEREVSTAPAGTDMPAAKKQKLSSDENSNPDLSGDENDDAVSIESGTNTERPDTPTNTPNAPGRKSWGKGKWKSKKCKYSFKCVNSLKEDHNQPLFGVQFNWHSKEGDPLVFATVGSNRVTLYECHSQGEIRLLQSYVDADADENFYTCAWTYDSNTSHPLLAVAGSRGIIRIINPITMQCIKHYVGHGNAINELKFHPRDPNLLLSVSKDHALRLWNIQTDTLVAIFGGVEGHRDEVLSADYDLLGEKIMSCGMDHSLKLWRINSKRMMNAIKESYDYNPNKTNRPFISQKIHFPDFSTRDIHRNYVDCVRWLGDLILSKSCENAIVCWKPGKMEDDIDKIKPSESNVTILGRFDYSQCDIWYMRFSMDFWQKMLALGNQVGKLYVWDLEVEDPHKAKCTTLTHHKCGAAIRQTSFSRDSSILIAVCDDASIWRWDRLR
EZH2, sequence (Q15022 whole entry partner): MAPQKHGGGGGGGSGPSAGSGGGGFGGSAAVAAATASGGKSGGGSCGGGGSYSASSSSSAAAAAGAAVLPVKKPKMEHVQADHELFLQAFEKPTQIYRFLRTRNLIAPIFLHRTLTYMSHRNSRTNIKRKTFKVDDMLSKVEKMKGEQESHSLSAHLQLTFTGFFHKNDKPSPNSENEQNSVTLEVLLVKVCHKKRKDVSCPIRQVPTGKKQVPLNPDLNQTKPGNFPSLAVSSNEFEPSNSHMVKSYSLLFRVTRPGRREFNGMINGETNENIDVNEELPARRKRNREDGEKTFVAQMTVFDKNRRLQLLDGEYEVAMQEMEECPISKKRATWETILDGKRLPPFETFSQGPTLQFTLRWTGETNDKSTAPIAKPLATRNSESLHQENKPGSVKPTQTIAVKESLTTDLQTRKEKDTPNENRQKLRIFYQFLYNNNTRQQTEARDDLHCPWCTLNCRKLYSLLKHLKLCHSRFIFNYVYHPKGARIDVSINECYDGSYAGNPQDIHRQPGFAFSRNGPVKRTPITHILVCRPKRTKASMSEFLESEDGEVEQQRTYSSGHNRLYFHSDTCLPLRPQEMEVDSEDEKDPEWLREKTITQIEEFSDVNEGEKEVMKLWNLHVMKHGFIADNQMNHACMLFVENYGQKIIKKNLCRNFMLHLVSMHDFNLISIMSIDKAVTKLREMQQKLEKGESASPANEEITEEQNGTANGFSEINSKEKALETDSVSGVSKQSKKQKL

Row | Structure (SMILES) | IC50
1 | CC1(C)CC(NC(=O)c2ccc(COc3cccc(-c4cncc(C#N)c4)c3)cc2)CC(C)(C)N1 [Compound I-33] | 20 to 80 µM
2 | CC1(C)CC(NC(=O)c2ccc(Oc3ccc([N+](=O)[O-])cc3)cc2)CC(C)(C)N1 [Compound I-73] | > 80 µM
3 | CC1(C)CC(NC(=O)c2ccc3ccccc3c2)CC(C)(C)N1 [Compound I-137] | > 80 µM
4 | CN1CCC(NC(=O)c2ccc(Oc3ccccc3C#N)c(Cl)c2)CC1 [Compound I-193] | > 80 µM
5 | N#Cc1c(Oc2ccc(C(=O)NC3CCNCC3C#N)cc2Cl)cccc1-c1ccnnc1 (stereo not shown) [Compound I-329] | > 80 µM
6 | COC(=O)C1CC(NC(=O)c2ccc(Oc3ccccc3C#N)c(Cl)c2)CCN1 (stereo not shown) [Compound I-389] | > 80 µM
7 | CC1CC(NC(=O)c2ccc(Oc3ccccc3C#N)c(Cl)c2)CC(C)N1 (stereo not shown) [Compound I-467] | 20 to 80 µM
8 | CC1(C)CC(NC(=O)c2cccc(-c3ccccc3)c2)CC(C)(C)N1 [Compound I-105] | > 80 µM
9 | CC1(C)CC(NC(=O)c2ccc(Oc3ccccc3)c(Cl)c2)CC(C)(C)N1 [Compound I-49, 3-chloro-N-(2,2,6,6-tetramethylpiperidin-4-yl)-4-phenoxybenzamide] | 20 to 80 µM
10 | CC1(C)CC(NC(=O)c2ccc(Oc3c(F)cccc3C#N)cc2)CC(C)(C)N1 [Compound I-159] | 20 to 80 µM
11 | CC(C)NC(=O)c1ccc(Oc2ccccc2)cc1 [Compound I-96] | > 80 µM
12 | CC1(C)CC(NC(=O)c2ccc(Oc3ccccc3C(=O)N3CCCC3)c(Cl)c2)CC(C)(C)N1 [Compound I-233] | > 80 µM
13 | CC1(C)CC(NC(=O)c2ccc(N3CCOc4ccccc43)c(Cl)c2)CC(C)(C)N1 [Compound I-384] | 20 to 80 µM
14 | CC1(C)CC(NC(=O)c2ccc3cc(Oc4ccccc4C#N)ccc3c2)CC(C)(C)N1 [Compound I-200] | 20 to 80 µM
15 | N#Cc1ccccc1Oc1ccc(C(=O)N[C@@H]2C[C@H]3CC[C@@H](C2)N3)cc1Cl [Compound I-380] | 20 to 80 µM
16 | CC1(C)CC(NC(=O)c2ccc(-c3ccc4cnccc4c3)c(Cl)c2)CC(C)(C)N1 [Compound I-376] | 20 to 80 µM
17 | COc1cc(Oc2ccccc2C#N)ccc1C(=O)NC1CC(C)(C)NC(C)(C)C1 [Compound I-191] | > 80 µM
18 | CC1(C)CC(NC(=O)c2ccc(OC3CNC3)c(Cl)c2)CC(C)(C)N1 [Compound I-392] | > 80 µM
19 | CC1(C)CC(NC(=O)c2ccc(Oc3ccccc3C(=O)Nc3ccccc3)c(Cl)c2)CC(C)(C)N1 [Compound I-272] | 20 to 80 µM
20 | CC1(C)CC(NC(=O)c2ccc(Oc3cccc(CN4CCCC4)c3)cc2)CC(C)(C)N1 [Compound I-235] | 5 to 20 µM
21 | CC1(C)CC(NC(=O)c2ccc(Oc3ccccc3CO)cc2)CC(C)(C)N1 [Compound I-179] | 20 to 80 µM

Row | Structure (SMILES) | IC50
22 | CC1(C)CC(NC(=O)c2ccc(S(=O)(=O)c3ccccc3)cc2)CC(C)(C)N1 [Compound I-357] | > 80 µM
23 | CC(C#N)c1cccc(Oc2ccc(C(=O)NC3CC(C)(C)NC(C)(C)C3)cc2Cl)c1 (stereo not shown) [Compound I-479] | 20 to 80 µM
24 | Cc1nnc2n1-c1ccccc1C(c1ccc(C(=O)NC3CC(C)(C)NC(C)(C)C3)cc1)=NC2 [Compound I-488] | > 80 µM
25 | CN(C(=O)c1ccc(Oc2ccccc2)cc1)C1CCNCC1 [Compound I-125, N-Methyl-4-phenoxy-N-(piperidin-4-yl)benzamide 2,2,2-trifluoroacetate] | > 80 µM
26 | CCOC(=O)N1CCC(NC(=O)c2ccc(Oc3ccccc3C#N)c(Cl)c2)CC1 [Compound I-281] | > 80 µM
27 | CN(C)C(=O)Cc1cccc(Oc2ccc(C(=O)NC3CC(C)(C)NC(C)(C)C3)cc2Cl)c1C#N [Compound I-464] | > 80 µM
28 | CC1(C)CC(NC(=O)c2ccc(Oc3ccccc3CN)cc2)CC(C)(C)N1 [Compound I-273] | 20 to 80 µM
29 | CN1CCC(NC(=O)c2ccc(Oc3cccc(-c4ccnnc4)c3C#N)c(Cl)c2)CC1 [Compound I-465] | > 80 µM
30 | CNC(=O)CC1(NC(=O)c2ccc(Oc3cccc(-c4ccnnc4)c3C#N)c(Cl)c2)CC(C)(C)NC(C)(C)C1 [Compound I-570] | > 80 µM
31 | CN(Cc1ccccc1)C(=O)c1ccc(Oc2ccccc2)cc1 [Compound I-133] | > 80 µM
32 | CC1(C)CC(NC(=O)c2ccc(C(C)(C)C)cc2)CC(C)(C)N1 [Compound I-138] | > 80 µM
33 | CCOC(=O)c1cccc(Oc2ccc(C(=O)NC3CC(C)(C)NC(C)(C)C3)cc2)c1 [Compound I-34] | 20 to 80 µM
34 | O=C(NCc1ccccc1)c1ccc(Oc2ccccc2)cc1 [Compound I-141] | > 80 µM
35 | CC1(C)CC(NC(=O)c2ccc(Oc3ccccc3C#N)c(Cl)c2)CC(=O)N1 (stereo not shown) [Compound I-491] | > 80 µM
36 | CC1(C)CC(NC(=O)c2ccc(Oc3ccc(Br)cc3)cc2)CC(C)(C)N1 [Compound I-93] | > 80 µM
37 | CC1(C)CC(NC(=O)c2ccc(Oc3ccccc3C#N)c(Cl)c2)CCN1 (stereo not shown) [Compound I-503] | 5 to 20 µM
38 | CC1(C)CC(NC(=O)c2ccc(Sc3ccccc3)cc2)CC(C)(C)N1 [Compound I-50] | 20 to 80 µM
39 | CC1(C)CC(NC(=O)c2ccc(COc3cccc(-c4cccc(C#N)c4)c3)cc2)CC(C)(C)N1 [Compound I-51] | 20 to 80 µM
40 | CC1(C)CC(NC(=O)c2ccc(C3=NCC(=O)Nc4ccccc43)cc2)CC(C)(C)N1 [Compound I-436] | > 80 µM
41 | CC(c1ccccc1C#N)N1CCN(C(=O)NC2CC(C)(C)NC(C)(C)C2)CC1 (stereo not shown) [Compound I-454] | > 80 µM

Other lines, results leading:

Row | IC50 | Structure (SMILES)
42 | < 5 µM | CC1(C)CC(NC(=O)c2ccc(Oc3cccc(CCC(N)=O)c3C#N)c(Cl)c2)CC(C)(C)N1 [Compound I-501]
43 | < 5 µM | CC1(C)CC(NC(=O)c2ccc(Oc3cccc(N4CCOCC4)c3C#N)c(Cl)c2)CC(C)(C)N1 [Compound I-391]
44 | < 5 µM | CC(=O)NCc1cccc(Oc2ccc(C(=O)NC3CC(C)(C)NC(C)(C)C3)cc2Cl)c1 [Compound I-430]
45 | < 5 µM | CNC(=O)Cc1cccc(Oc2ccc(C(=O)NC3CC(C)(C)NC(C)(C)C3)cc2Cl)c1C#N [Compound I-458]
46 | < 5 µM | Cc1cncc(-c2cccc(Oc3ccc(C(=O)NC4CC(C)(C)NC(C)(C)C4)cc3Cl)c2C#N)c1 [Compound I-360]
47 | < 5 µM | CC1(C)CC(NC(=O)c2ccc(Oc3cccc(C4CCOC4)c3C#N)c(Cl)c2)CC(C)(C)N1 (stereo not shown) [Compound I-530]
48 | < 5 µM | CC1(C)CC(NC(=O)c2ccc(Oc3cccc4cnccc34)c(Br)c2)CC(C)(C)N1 [Compound I-291]
49 | < 5 µM | COC(=O)c1cncc(-c2ccccc2Oc2ccc(C(=O)NC3CC(C)(C)NC(C)(C)C3)cc2Cl)c1 [Compound I-322]
50 | < 5 µM | CC(O)c1cccc(Oc2ccc(C(=O)NC3CC(C)(C)NC(C)(C)C3)cc2Cl)c1Br (stereo not shown) [Compound I-399]
51 | < 5 µM | CC1(C)CC(NC(=O)c2ccc(Oc3ccccc3C#N)c(-c3ccsc3)c2)CC(C)(C)N1 [Compound I-212]
52 | < 5 µM | Cc1noc(C)c1-c1cccc(Oc2ccc(C(=O)NC3CC(C)(C)NC(C)(C)C3)cc2Cl)c1C#N [Compound I-463]
53 | 5 to 20 µM | CC1(C)CC(NC(=O)c2ccc(Oc3cccc4nccn34)c(Cl)c2)CC(C)(C)N1 [Compound I-372]
54 | < 5 µM | CC1(C)CC(NC(=O)c2ccc(Oc3ccccc3C#N)cc2)CC(C)(C)N1 [Compound I-6]
55 | < 5 µM | CC1(C)CC(NC(=O)c2ccc(Oc3cccc(CC(N)=O)c3C#N)c(Cl)c2)CC(C)(C)N1 [Compound I-469]
56 | 5 to 20 µM | CC1(C)CC(NC(=O)c2ccc(Oc3cccc4c3C(=O)NCC4)c(Cl)c2)CC(C)(C)N1 [Compound I-525]
57 | 5 to 20 µM | CC1(C)CC(NC(=O)c2ccc(Oc3cccc4cnc(N)cc34)cc2)CC(C)(C)N1 [Compound I-350]
58 | 5 to 20 µM | CC1(C)CC(NC(=O)c2ccc(Oc3ccccc3C(C)(C)C)cc2)CC(C)(C)N1 [Compound I-151]
59 | < 5 µM | CC1(C)CC(NC(=O)c2ccc(Oc3cccc(C(F)(F)F)c3C#N)c(Cl)c2)CC(C)(C)N1 [Compound I-311]
60 | < 5 µM | Cc1ncccc1-c1cccc(Oc2ccc(C(=O)NC3CC(C)(C)NC(C)(C)C3)cc2Cl)c1C#N [Compound I-352]
61 | < 5 µM | CC1(C)CC(NC(=O)c2ccc(Oc3ccccc3-c3ccccc3)c(Cl)c2)CC(C)(C)N1 [Compound I-206]
62 | < 5 µM | CC1(C)CC(NC(=O)c2ccc(Oc3cncc(-c4ccncc4)c3C#N)c(Cl)c2)CC(C)(C)N1 [Compound I-520]
63 | < 5 µM | CC1(C)CC(NC(=O)c2ccc(Oc3cccc(C4CCNCC4)c3C#N)c(Cl)c2)CC(C)(C)N1 [Compound I-535]
64 | < 5 µM | CC1(C)CC(NC(=O)c2ccc(Oc3cccc4cnc(Cl)cc34)cc2)CC(C)(C)N1 [Compound I-315]
